Source: PubChem BioAssay (NCI)
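Tested at 5 concentrations; 48 h exposure; 96-well plates; endpoints linearly interpolated, else capped at highest concentration. GI50 is the concentration that inhibits growth by half. The concentration for full growth arrest is given as TGI.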

What was measured:
Assay in all cases: inhibition of tumour cell growth, NCI panel, 48 h
A498 renal = system: A498 renal
HT29 colon = system: HT29 colon
LOX IMVI melanoma = system: LOX IMVI melanoma
MDA-MB-231 breast = system: MDA-MB-231 breast
NCI-H522 lung = system: NCI-H522 lung
OVCAR-5 ovarian = system: OVCAR-5 ovarian
SK-OV-3 ovarian = system: SK-OV-3 ovarian
SN12C renal = system: SN12C renal
SNB-75 CNS = system: SNB-75 CNS

Cc1c(-c2ccccc2)c(C#N)c2nnn(-c3ccccc3)c(=O)n12
TGI (A498 renal): > 100 µM | TGI (HT29 colon): > 100 µM | TGI (LOX IMVI melanoma): > 100 µM | TGI (MDA-MB-231 breast): > 100 µM | TGI (NCI-H522 lung): > 100 µM | TGI (OVCAR-5 ovarian): > 100 µM | TGI (SK-OV-3 ovarian): > 100 µM | TGI (SN12C renal): > 100 µM | TGI (SNB-75 CNS): > 100 µM

CCCCC/C=C1/CC(CO)(COC(=O)CC(C(C)C)C(C)C)OC1=O (stereo unspecified)
TGI (A498 renal): 26.5 µM | TGI (HT29 colon): 34.9 µM | TGI (MDA-MB-231 breast): 32.5 µM | TGI (NCI-H522 lung): 29.9 µM | TGI (OVCAR-5 ovarian): 29.7 µM | TGI (SK-OV-3 ovarian): 40.4 µM | TGI (SN12C renal): 26 µM | TGI (SNB-75 CNS): 22.6 µM

O=[N+]([O-])C(/C(Cl)=C(/Cl)N1CCOCC1)=C1\NCCO1
TGI (A498 renal): > 100 µM | TGI (HT29 colon): > 100 µM | TGI (MDA-MB-231 breast): > 100 µM | TGI (OVCAR-5 ovarian): > 100 µM | TGI (SK-OV-3 ovarian): > 100 µM | TGI (SN12C renal): > 100 µM | TGI (SNB-75 CNS): > 100 µM

CCCC(Sc1nc(N)nc2nc[nH]c12)C(=O)O (stereo unspecified)
TGI (A498 renal): > 100 µM | TGI (HT29 colon): > 100 µM | TGI (LOX IMVI melanoma): > 100 µM | TGI (MDA-MB-231 breast): > 100 µM | TGI (NCI-H522 lung): > 100 µM | TGI (OVCAR-5 ovarian): > 100 µM | TGI (SK-OV-3 ovarian): > 100 µM | TGI (SN12C renal): > 100 µM | TGI (SNB-75 CNS): > 100 µM

Cc1c(CNc2ccc(Cl)c(C(=O)NC(CC(=O)O)C(=O)O)c2)ccc2nc(N)nc(N)c12 (stereo unspecified)
GI50 (A498 renal): 24.9 µM | TGI (A498 renal): 680 µM | TGI (HT29 colon): > 1000 µM | TGI (LOX IMVI melanoma): > 1000 µM | GI50 (MDA-MB-231 breast): > 1000 µM | TGI (MDA-MB-231 breast): > 1000 µM | GI50 (NCI-H522 lung): 211 µM | TGI (NCI-H522 lung): 682 µM | GI50 (SK-OV-3 ovarian): 800 µM | TGI (SK-OV-3 ovarian): > 1000 µM | TGI (SN12C renal): > 1000 µM | GI50 (SNB-75 CNS): 122 µM | TGI (SNB-75 CNS): > 1000 µM

COc1ccc(-c2oc3ccc(C)cc3c(=O)c2O)cc1
TGI (A498 renal): > 100 µM | TGI (HT29 colon): > 100 µM | TGI (LOX IMVI melanoma): > 100 µM | TGI (MDA-MB-231 breast): > 100 µM | TGI (NCI-H522 lung): > 100 µM | TGI (OVCAR-5 ovarian): > 100 µM | TGI (SK-OV-3 ovarian): > 100 µM | TGI (SN12C renal): > 100 µM | TGI (SNB-75 CNS): > 100 µM

Cn1ccnc1CCc1ccc(F)cc1F
TGI (A498 renal): > 100 µM | TGI (HT29 colon): > 100 µM | TGI (LOX IMVI melanoma): > 100 µM | TGI (MDA-MB-231 breast): > 100 µM | TGI (NCI-H522 lung): > 100 µM | TGI (OVCAR-5 ovarian): > 100 µM | TGI (SK-OV-3 ovarian): > 100 µM | TGI (SN12C renal): > 100 µM | TGI (SNB-75 CNS): > 100 µM

NNC(=O)CC(=O)Nc1ccc(Cl)cc1
TGI (A498 renal): > 100 µM | TGI (HT29 colon): > 100 µM | TGI (LOX IMVI melanoma): > 100 µM | TGI (MDA-MB-231 breast): > 100 µM | TGI (NCI-H522 lung): > 100 µM | TGI (OVCAR-5 ovarian): > 100 µM | TGI (SK-OV-3 ovarian): > 100 µM | TGI (SN12C renal): > 100 µM | TGI (SNB-75 CNS): > 100 µM

Cc1oc2nc1C(=O)NCc1nc(cs1)C(=O)N[C@H](C(C)C)c1nc(cs1)C(=O)N[C@H]2C
TGI (A498 renal): > 100 µM | TGI (HT29 colon): > 100 µM | TGI (MDA-MB-231 breast): > 100 µM | TGI (NCI-H522 lung): 87.4 µM | TGI (OVCAR-5 ovarian): > 100 µM | TGI (SK-OV-3 ovarian): > 100 µM | TGI (SN12C renal): > 100 µM | TGI (SNB-75 CNS): > 100 µM

CCNC(=S)N/N=C/c1cc(OC)ccc1O
TGI (HT29 colon): > 100 µM | TGI (LOX IMVI melanoma): > 100 µM | TGI (MDA-MB-231 breast): > 100 µM | TGI (NCI-H522 lung): > 100 µM | TGI (OVCAR-5 ovarian): > 100 µM | TGI (SK-OV-3 ovarian): > 100 µM | TGI (SN12C renal): > 100 µM | TGI (SNB-75 CNS): > 100 µM

CN(C)CCCn1c(Cc2ccccc2)nc2cc(C(F)(F)F)ccc21
TGI (A498 renal): 34.6 µM | TGI (HT29 colon): 42.4 µM | TGI (LOX IMVI melanoma): 35.6 µM | TGI (MDA-MB-231 breast): 73.3 µM | TGI (NCI-H522 lung): 48.3 µM | TGI (OVCAR-5 ovarian): > 100 µM | TGI (SK-OV-3 ovarian): 63.2 µM | TGI (SN12C renal): > 100 µM | TGI (SNB-75 CNS): > 100 µM

COC(c1ccsc1)C(C#N)(C#N)N=Cc1ccsc1 (stereo unspecified)
TGI (A498 renal): 29.1 µM | TGI (HT29 colon): 25.1 µM | TGI (LOX IMVI melanoma): 22 µM | TGI (MDA-MB-231 breast): 21.3 µM | TGI (NCI-H522 lung): 21.3 µM | TGI (OVCAR-5 ovarian): 46.6 µM | TGI (SK-OV-3 ovarian): 59.1 µM | TGI (SN12C renal): 30.8 µM | TGI (SNB-75 CNS): 29.9 µM

O=C1COC(c2ccccc2O)=NN1CCCN1CCCC1
TGI (A498 renal): > 100 µM | TGI (HT29 colon): > 100 µM | TGI (MDA-MB-231 breast): > 100 µM | TGI (NCI-H522 lung): > 100 µM | TGI (OVCAR-5 ovarian): > 100 µM | TGI (SK-OV-3 ovarian): > 100 µM | TGI (SN12C renal): > 100 µM | TGI (SNB-75 CNS): > 100 µM

CC(C)OC(=O)c1ccc(NCC2=CC(=O)C=CC2=O)cc1Cl
TGI (A498 renal): 43.2 µM | TGI (HT29 colon): > 62.5 µM | TGI (LOX IMVI melanoma): 35.6 µM | TGI (MDA-MB-231 breast): 47.6 µM | TGI (OVCAR-5 ovarian): 70.1 µM | TGI (SK-OV-3 ovarian): > 100 µM | TGI (SN12C renal): 44.3 µM | TGI (SNB-75 CNS): > 70.3 µM

CCNc1nc(N)c(C(=O)c2ccc(Cl)cc2)s1
TGI (A498 renal): 70.3 µM | TGI (HT29 colon): > 100 µM | TGI (LOX IMVI melanoma): > 100 µM | TGI (MDA-MB-231 breast): > 100 µM | TGI (OVCAR-5 ovarian): > 100 µM | TGI (SK-OV-3 ovarian): > 100 µM | TGI (SN12C renal): > 100 µM

CN(C(=O)C12C3C4(C(=O)O)C1(C(=O)N(C)C(C)(C)C)C1C2(C(=O)O)C3(C(=O)N(C)C(C)(C)C)C14C(=O)N(C)C(C)(C)C)C(C)(C)C (stereo unspecified)
TGI (A498 renal): > 100 µM | TGI (HT29 colon): > 100 µM | TGI (LOX IMVI melanoma): > 100 µM | TGI (MDA-MB-231 breast): > 100 µM | TGI (NCI-H522 lung): > 100 µM | TGI (OVCAR-5 ovarian): > 100 µM | TGI (SN12C renal): > 100 µM

CCN1CCN(C(=O)[C@]23CC[C@@H](C)[C@H](C)[C@@H]2C2=CC[C@@H]4[C@@]5(C)C/C(=C/c6cccnc6)C(=O)C(C)(C)[C@@H]5CC[C@@]4(C)[C@]2(C)CC3)CC1
GI50 (A498 renal): 1.9 µM | TGI (A498 renal): 4.05 µM | GI50 (HT29 colon): 1.93 µM | TGI (HT29 colon): 5.36 µM | GI50 (LOX IMVI melanoma): 1.58 µM | TGI (LOX IMVI melanoma): 3.06 µM | GI50 (MDA-MB-231 breast): 1.75 µM | TGI (MDA-MB-231 breast): 3.59 µM | GI50 (OVCAR-5 ovarian): 1.54 µM | TGI (OVCAR-5 ovarian): 2.93 µM | GI50 (SK-OV-3 ovarian): 2.7 µM | TGI (SK-OV-3 ovarian): 9.2 µM | GI50 (SN12C renal): 1.61 µM | TGI (SN12C renal): 3.01 µM | GI50 (SNB-75 CNS): 1.57 µM | TGI (SNB-75 CNS): 8.91 µM

Cc1ccc(S(=O)(=O)NC(=O)NC(Cc2c[nH]c3ccccc23)C(=O)O)cc1 (stereo unspecified)
TGI (HT29 colon): > 100 µM | TGI (LOX IMVI melanoma): > 100 µM | TGI (MDA-MB-231 breast): > 100 µM | TGI (NCI-H522 lung): > 100 µM | TGI (OVCAR-5 ovarian): > 100 µM | TGI (SK-OV-3 ovarian): > 100 µM | TGI (SN12C renal): > 100 µM | TGI (SNB-75 CNS): > 100 µM

CC1CN=C(Nc2cccc(C(F)(F)F)c2)S1 (stereo unspecified)
TGI (A498 renal): > 100 µM | TGI (HT29 colon): > 100 µM | TGI (LOX IMVI melanoma): > 100 µM | TGI (MDA-MB-231 breast): > 100 µM | TGI (NCI-H522 lung): > 100 µM | TGI (OVCAR-5 ovarian): > 100 µM | TGI (SK-OV-3 ovarian): > 100 µM | TGI (SNB-75 CNS): > 100 µM

COC(=O)c1c(OC(C)=O)ccc2c1c1c(OC(C)=O)c3ccccc3c(OC(C)=O)c1n2Cc1cc(OC)cc(OC)c1
TGI (A498 renal): 89.8 µM | TGI (HT29 colon): > 100 µM | TGI (MDA-MB-231 breast): > 100 µM | TGI (NCI-H522 lung): 9.2 µM | TGI (OVCAR-5 ovarian): > 100 µM | TGI (SK-OV-3 ovarian): 57.8 µM | TGI (SN12C renal): > 100 µM | TGI (SNB-75 CNS): 54.3 µM

Nc1ccc2c(c1)C1Oc3ccccc3CC1CO2 (stereo unspecified)
TGI (A498 renal): > 100 µM | TGI (HT29 colon): > 100 µM | TGI (LOX IMVI melanoma): > 100 µM | TGI (MDA-MB-231 breast): > 100 µM | TGI (NCI-H522 lung): > 100 µM | TGI (OVCAR-5 ovarian): > 100 µM | TGI (SK-OV-3 ovarian): > 100 µM | TGI (SN12C renal): > 100 µM

COc1c(-c2cc(C)c(Cl)c(=O)[nH]2)c(O)c(OC)c2occc12
TGI (HT29 colon): > 100 µM | TGI (LOX IMVI melanoma): > 100 µM | TGI (MDA-MB-231 breast): > 100 µM | TGI (NCI-H522 lung): > 100 µM | TGI (OVCAR-5 ovarian): > 100 µM | TGI (SK-OV-3 ovarian): > 100 µM | TGI (SN12C renal): > 100 µM | TGI (SNB-75 CNS): > 100 µM

C=CCOc1ccc(C2c3c([nH][nH]c3=O)CC(O)(OCC)C2C(=O)OCC)cc1OC (stereo unspecified)
TGI (A498 renal): > 100 µM | TGI (HT29 colon): > 100 µM | TGI (LOX IMVI melanoma): > 100 µM | TGI (MDA-MB-231 breast): > 100 µM | TGI (NCI-H522 lung): > 100 µM | TGI (OVCAR-5 ovarian): > 100 µM | TGI (SN12C renal): > 100 µM | TGI (SNB-75 CNS): > 100 µM
